Test results as given in patent US6737383B1, “Herbicidal oxadiazolidines” (priority 1999, dated 2004).

Legend:
common pursiane = experiment: Test D common purslane; assay type: in vivo, Portulaca oleracea; settings: Postemergence, 0 to 100 scale
Green foxtail [1] = experiment: Test D green foxtail; assay type: in vivo; settings: Rate 250 g/ha; Postemergence; 0 to 100 scale
Green foxtail [2] = experiment: Test D green foxtail; assay type: in vivo; settings: Postemergence, 0 to 100 scale, 0 no injury, 100 complete control
cocklebur = experiment: Test B pre/postemergence cocklebur; assay type: in vivo, Xanthium strumarium; settings: for Cocklebur plant response rating: scale of 0 to 10 where 0 is no effect and 10 is complete control
Outline: (§1)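 Herbicidal effect was estimated by eye on a ten-point control scale after plants spent twelve to sixteen days in a greenhouse following soil or foliar treatment. Foliar sprays targeted plants at one to four leaves; all doses were formulated in a non-phytotoxic solvent with surfactant.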

itchgrass = experiment: Test D itchgrass; assay type: in vivo, Rottboellia exaltata; settings: Postemergence, 0 to 100 scale
common groundsel = experiment: Test D common groundsel; assay type: in vivo, Senecio vulgaris; settings: Postemergence, 0 to 100 scale
pitted morningglory = experiment: Test D pitted morningglory; assay type: in vivo, Ipomoea lacunosa; settings: Postemergence, 0 to 100 scale
morningglory = experiment: Test B pre/postemergence morningglory; assay type: in vivo, Ipomoea hederacea; settings: for Morningglory plant response rating: scale of 0 to 10 where 0 is no effect and 10 is complete control
Outline: as §1

surinam grass = experiment: Test D surinam grass; assay type: in vivo, Brachiaria decumbens; settings: Postemergence, 0 to 100 scale
Green foxtail [3] = experiment: Test D green foxtail; assay type: in vivo; settings: Postemergence, 0 to 100 scale, 0 no injury, 100 complete control; remark: listed apart in the source
soybean = experiment: Test B pre/postemergence soybean; assay type: in vivo, Glycine max; settings: for Soybean plant response rating: scale of 0 to 10 where 0 is no effect and 10 is complete control
Outline: as §1

Green foxtail [4] = experiment: Test D green foxtail; assay type: in vivo; settings: Rate 250 g/ha; Postemergence; 0 to 100 scale; remark: listed apart in the source
Spanishneedles = experiment: Test D Spanishneedles; assay type: in vivo, Bidens bipinnata; settings: Postemergence, 0 to 100 scale
pigweed = experiment: Test B pre/postemergence pigweed; assay type: in vivo, Amaranthus retroflexus; settings: for Redroot pigweed plant response rating: scale of 0 to 10 where 0 is no effect and 10 is complete control
Outline: as §1

[5] = Rate 16 g/ha, 0 no injury, 100 complete control
[6] = Rate 32 g/ha, 0 no injury, 100 complete control
[7] = Rate 64 g/ha, 0 no injury, 100 complete control
[8] = Rate 125 g/ha, 0 no injury, 100 complete control
[9] = Postemergence, Rate 125 g/ha, scale 0 to 10, 0 is no effect, 10 is complete control
[10] = Preemergence, Rate 62 g/ha, scale 0 to 10 (0 no effect, 10 complete control)
[11] = Rate 500 g/ha, Postemergence, scale 0 to 10, 0 no effect, 10 complete control

CC(C)N(C(=O)n1oc(=O)n(CC2CCCO2)c1=O)c1ccc(F)cc1 (centres unmarked) [Compound 343]
Plant response rating, C. purslane (common pursiane; [5]): 0
Plant response rating, C. purslane (common pursiane; [6]): 0
Plant response rating, C. purslane (common pursiane; [7]): 0
Plant response rating, C. purslane (common pursiane; [8]): 0
Plant response rating, C. purslane (common pursiane; Rate 250 g/ha): 0
Plant response rating, Green foxtail (Green foxtail [1]): 100
Plant response rating, Green foxtail (Green foxtail [2]; Rate 16 g/ha): 0
Plant response rating, Green foxtail (Green foxtail [2]; Rate 32 g/ha): 100
Plant response rating, Cocklebur (cocklebur; [9]): 0
Plant response rating, Cocklebur (cocklebur; [10]): 0
Cocklebur plant response rating (cocklebur; Preemergence, Rate 250 g/ha): 0
Cocklebur plant response rating (cocklebur; Preemergence, Rate 500 g/ha): 0
Cocklebur plant response rating (cocklebur; Rate 62 g/ha, Postemergence): 0
Plant response rating, Cocklebur (cocklebur; [11]): 4
Plant response rating, Itchgrass (itchgrass; [5]): 0
Plant response rating, Itchgrass (itchgrass; [6]): 0
Plant response rating, Itchgrass (itchgrass; [7]): 20
Plant response rating, Itchgrass (itchgrass; [8]): 20
Plant response rating, Itchgrass (itchgrass; Rate 250 g/ha): 30
Plant response rating, Com. groundsel (common groundsel; [5]): 0
Plant response rating, Com. groundsel (common groundsel; [6]): 40
Plant response rating, Com. groundsel (common groundsel; [7]): 100
Plant response rating, Com. groundsel (common groundsel; [8]): 100
Plant response rating, Com. groundsel (common groundsel; Rate 250 g/ha): 100
Plant response rating, P. morninglory (pitted morningglory; [5]): 0
Plant response rating, P. morninglory (pitted morningglory; [6]): 0
Plant response rating, P. morninglory (pitted morningglory; [7]): 0
Plant response rating, P. morninglory (pitted morningglory; [8]): 0
Plant response rating, P. morninglory (pitted morningglory; Rate 250 g/ha): 0
Plant response rating, Morningglory (morningglory; [9]): 2
Plant response rating, Morningglory (morningglory; [10]): 0
Morningglory plant response rating (0 to 10 scale) (morningglory; Preemergence, Rate 125 g/ha): 2
Morningglory plant response rating (morningglory; Preemergence, Rate 500 g/ha): 3
Morningglory plant response rating (morningglory; Rate 62 g/ha, Postemergence): 2
Plant response rating, Morningglory (morningglory; [11]): 9
Plant response rating, Surinam grass (surinam grass; [5]): 0
Plant response rating, Surinam grass (surinam grass; [6]): 20
Surinam grass plant response rating (surinam grass; [7]): 20
Surinam grass plant response rating (surinam grass; [8]): 70
Plant response rating, Surinam grass (surinam grass; Rate 250 g/ha): 100
Plant response rating, Green foxtail (Green foxtail [3]; Rate 16 g/ha): 0
Plant response rating, Green foxtail (Green foxtail [3]; Rate 32 g/ha): 100
Plant response rating, Soybean (soybean; [9]): 1
Plant response rating, Soybean (soybean; [10]): 0
Soybean plant response rating (0 to 10 scale) (soybean; Preemergence, Rate 125 g/ha): 0
Soybean plant response rating (soybean; Preemergence, Rate 250 g/ha): 0
Soybean plant response rating (soybean; Preemergence, Rate 500 g/ha): 0
Soybean plant response rating (soybean; Rate 62 g/ha, Postemergence): 1
Plant response rating, Soybean (soybean; [11]): 3
Plant response rating, Green foxtail (Green foxtail [4]): 100
Plant response rating, Spanishneedles (Spanishneedles; [5]): 0
Plant response rating, Spanishneedles (Spanishneedles; [6]): 0
Spanishneedles plant response rating (Spanishneedles; [7]): 0
Spanishneedles plant response rating (Spanishneedles; [8]): 0
Plant response rating, Spanishneedles (Spanishneedles; Rate 250 g/ha): 20
Plant response rating, Redroot pigweed (pigweed; [9]): 0
Plant response rating, Redroot pigweed (pigweed; [10]): 10
Redroot pigweed plant response rating (0 to 10 scale) (pigweed; Preemergence, Rate 125 g/ha): 10
Redroot pigweed plant response rating (pigweed; Preemergence, Rate 250 g/ha): 10
Redroot pigweed plant response rating (pigweed; Preemergence, Rate 500 g/ha): 10
Redroot pigweed plant response rating (pigweed; Rate 62 g/ha, Postemergence): 0
Plant response rating, Redroot pigweed (pigweed; [11]): 5

COCC(C)n1c(=O)on(C(=O)N(c2ccc(F)cc2F)C(C)C)c1=O (centres unmarked) [Compound 357]
Plant response rating, C. purslane (common pursiane; [5]): 0
Plant response rating, C. purslane (common pursiane; [6]): 0
Plant response rating, C. purslane (common pursiane; [7]): 0
Plant response rating, C. purslane (common pursiane; [8]): 0
Plant response rating, C. purslane (common pursiane; Rate 250 g/ha): 0
Plant response rating, Green foxtail (Green foxtail [1]): 100
Plant response rating, Green foxtail (Green foxtail [2]; Rate 16 g/ha): 10
Plant response rating, Green foxtail (Green foxtail [2]; Rate 32 g/ha): 30
Plant response rating, Cocklebur (cocklebur; [9]): 0
Plant response rating, Cocklebur (cocklebur; [10]): 0
Cocklebur plant response rating (0 to 10 scale) (cocklebur; Preemergence, Rate 125 g/ha): 0
Cocklebur plant response rating (cocklebur; Preemergence, Rate 250 g/ha): 0
Cocklebur plant response rating (cocklebur; Preemergence, Rate 500 g/ha): 0
Cocklebur plant response rating (cocklebur; Rate 62 g/ha, Postemergence): 0
Plant response rating, Cocklebur (cocklebur; [11]): 2
Plant response rating, Itchgrass (itchgrass; [5]): 0
Plant response rating, Itchgrass (itchgrass; [6]): 0
Plant response rating, Itchgrass (itchgrass; [7]): 0
Plant response rating, Itchgrass (itchgrass; [8]): 30
Plant response rating, Itchgrass (itchgrass; Rate 250 g/ha): 50
Plant response rating, Com. groundsel (common groundsel; [6]): 40
Plant response rating, Com. groundsel (common groundsel; [7]): 100
Plant response rating, Com. groundsel (common groundsel; [8]): 100
Plant response rating, Com. groundsel (common groundsel; Rate 250 g/ha): 100
Plant response rating, P. morninglory (pitted morningglory; [5]): 0
Plant response rating, P. morninglory (pitted morningglory; [6]): 0
Plant response rating, P. morninglory (pitted morningglory; [7]): 0
Plant response rating, P. morninglory (pitted morningglory; [8]): 0
Plant response rating, P. morninglory (pitted morningglory; Rate 250 g/ha): 0
Plant response rating, Morningglory (morningglory; [9]): 2
Plant response rating, Morningglory (morningglory; [10]): 0
Morningglory plant response rating (0 to 10 scale) (morningglory; Preemergence, Rate 125 g/ha): 2
Morningglory plant response rating (morningglory; Preemergence, Rate 250 g/ha): 2
Morningglory plant response rating (morningglory; Preemergence, Rate 500 g/ha): 7
Morningglory plant response rating (morningglory; Rate 62 g/ha, Postemergence): 2
Plant response rating, Morningglory (morningglory; [11]): 8
Plant response rating, Surinam grass (surinam grass; [5]): 0
Plant response rating, Surinam grass (surinam grass; [6]): 20
Surinam grass plant response rating (surinam grass; [7]): 80
Surinam grass plant response rating (surinam grass; [8]): 100
Plant response rating, Surinam grass (surinam grass; Rate 250 g/ha): 100
Plant response rating, Green foxtail (Green foxtail [3]; Rate 16 g/ha): 10
Plant response rating, Green foxtail (Green foxtail [3]; Rate 32 g/ha): 30
Plant response rating, Soybean (soybean; [9]): 2
Plant response rating, Soybean (soybean; [10]): 0
Soybean plant response rating (0 to 10 scale) (soybean; Preemergence, Rate 125 g/ha): 0
Soybean plant response rating (soybean; Preemergence, Rate 250 g/ha): 0
Soybean plant response rating (soybean; Preemergence, Rate 500 g/ha): 0
Soybean plant response rating (soybean; Rate 62 g/ha, Postemergence): 2
Plant response rating, Soybean (soybean; [11]): 3
Plant response rating, Green foxtail (Green foxtail [4]): 100
Plant response rating, Spanishneedles (Spanishneedles; [5]): 10
Plant response rating, Spanishneedles (Spanishneedles; [6]): 10
Spanishneedles plant response rating (Spanishneedles; [7]): 10
Spanishneedles plant response rating (Spanishneedles; [8]): 10
Plant response rating, Spanishneedles (Spanishneedles; Rate 250 g/ha): 20
Plant response rating, Redroot pigweed (pigweed; [9]): 0
Plant response rating, Redroot pigweed (pigweed; [10]): 7
Redroot pigweed plant response rating (0 to 10 scale) (pigweed; Preemergence, Rate 125 g/ha): 10
Redroot pigweed plant response rating (pigweed; Preemergence, Rate 250 g/ha): 10
Redroot pigweed plant response rating (pigweed; Preemergence, Rate 500 g/ha): 10
Redroot pigweed plant response rating (pigweed; Rate 62 g/ha, Postemergence): 0
Plant response rating, Redroot pigweed (pigweed; [11]): 8
